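Method: 48-hour compound exposure of cells in 96-well plates, five concentrations, linear interpolation of endpoints. Here, GI50 denotes the concentration required for 50% inhibition of growth. TGI denotes the concentration required for complete inhibition of growth.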
Columns and labels:
Experiment in all cases: inhibition of tumour cell growth, NCI panel, 48 h
SW-620 colon = tested on: SW-620 colon
RPMI-8226 leukemia = tested on: RPMI-8226 leukemia
SN12C renal = tested on: SN12C renal
KM12 colon = tested on: KM12 colon
UO-31 renal = tested on: UO-31 renal
EKVX NSCLC = tested on: EKVX NSCLC
SR leukemia = tested on: SR leukemia
RXF 393 renal = tested on: RXF 393 renal
SK-OV-3 ovarian = tested on: SK-OV-3 ovarian
MOLT-4 leukemia = tested on: MOLT-4 leukemia
UACC-62 melanoma = tested on: UACC-62 melanoma
SF-268 CNS = tested on: SF-268 CNS
TK-10 renal = tested on: TK-10 renal
SK-MEL-28 melanoma = tested on: SK-MEL-28 melanoma
OVCAR-8 ovarian = tested on: OVCAR-8 ovarian
SK-MEL-5 melanoma = tested on: SK-MEL-5 melanoma
M14 melanoma = tested on: M14 melanoma
SF-539 CNS = tested on: SF-539 CNS
NCI-H23 lung = tested on: NCI-H23 lung
SF-295 CNS = tested on: SF-295 CNS
HCT-15 colon = tested on: HCT-15 colon
UACC-257 melanoma = tested on: UACC-257 melanoma
LOX IMVI melanoma = tested on: LOX IMVI melanoma
A549 NSCLC = tested on: A549 NSCLC
OVCAR-4 ovarian = tested on: OVCAR-4 ovarian
SK-MEL-2 melanoma = tested on: SK-MEL-2 melanoma
NCI-H522 lung = tested on: NCI-H522 lung
786-0 renal = tested on: 786-0 renal
OVCAR-3 ovarian = tested on: OVCAR-3 ovarian
NCI-H460 lung = tested on: NCI-H460 lung
NCI-H226 lung = tested on: NCI-H226 lung
BT-549 breast = tested on: BT-549 breast
ACHN renal = tested on: ACHN renal
CCRF-CEM leukemia = tested on: CCRF-CEM leukemia
U251 CNS = tested on: U251 CNS
IGROV1 ovarian = tested on: IGROV1 ovarian
NCI/ADR-RES ovarian = tested on: NCI/ADR-RES ovarian
OVCAR-5 ovarian = tested on: OVCAR-5 ovarian
SNB-19 CNS = tested on: SNB-19 CNS
PC-3 prostate = tested on: PC-3 prostate
MDA-MB-435 = tested on: MDA-MB-435
HOP-62 NSCLC = tested on: HOP-62 NSCLC
HL-60(TB) leukemia = tested on: HL-60(TB) leukemia
MALME-3M melanoma = tested on: MALME-3M melanoma
MCF7 breast = tested on: MCF7 breast
HT29 colon = tested on: HT29 colon
K-562 leukemia = tested on: K-562 leukemia
HCC-2998 colon = tested on: HCC-2998 colon
HS 578T breast = tested on: HS 578T breast
SNB-75 CNS = tested on: SNB-75 CNS
COLO 205 colon = tested on: COLO 205 colon
HCT-116 colon = tested on: HCT-116 colon
CAKI-1 renal = tested on: CAKI-1 renal
A498 renal = tested on: A498 renal
DU-145 prostate = tested on: DU-145 prostate
MDA-MB-231 breast = tested on: MDA-MB-231 breast

OCCCC(O)(c1ccccc1)c1ccccc1
TGI (SW-620 colon): > 100 µM | TGI (RPMI-8226 leukemia): > 100 µM | TGI (SN12C renal): > 100 µM | TGI (KM12 colon): > 100 µM | TGI (UO-31 renal): > 100 µM | TGI (EKVX NSCLC): > 100 µM | TGI (SR leukemia): > 100 µM | TGI (RXF 393 renal): > 100 µM | TGI (SK-OV-3 ovarian): > 100 µM | TGI (MOLT-4 leukemia): > 100 µM | TGI (UACC-62 melanoma): > 100 µM | TGI (SF-268 CNS): > 100 µM | TGI (TK-10 renal): > 100 µM | TGI (SK-MEL-28 melanoma): > 100 µM | TGI (OVCAR-8 ovarian): > 100 µM | TGI (SK-MEL-5 melanoma): > 100 µM | TGI (M14 melanoma): > 100 µM | TGI (SF-539 CNS): > 100 µM | TGI (NCI-H23 lung): > 100 µM | TGI (SF-295 CNS): > 100 µM | TGI (HCT-15 colon): > 100 µM | TGI (UACC-257 melanoma): > 100 µM | TGI (LOX IMVI melanoma): > 100 µM | TGI (A549 NSCLC): > 100 µM | TGI (OVCAR-4 ovarian): > 100 µM | TGI (SK-MEL-2 melanoma): > 100 µM | TGI (NCI-H522 lung): > 100 µM | TGI (786-0 renal): > 100 µM | TGI (OVCAR-3 ovarian): > 100 µM | TGI (NCI-H460 lung): > 100 µM | TGI (NCI-H226 lung): > 100 µM | TGI (BT-549 breast): > 100 µM | TGI (ACHN renal): > 100 µM | TGI (CCRF-CEM leukemia): > 100 µM | TGI (U251 CNS): > 100 µM | TGI (IGROV1 ovarian): > 100 µM | TGI (NCI/ADR-RES ovarian): > 100 µM | TGI (OVCAR-5 ovarian): > 100 µM | TGI (SNB-19 CNS): > 100 µM | TGI (PC-3 prostate): > 100 µM | TGI (MDA-MB-435): > 100 µM | TGI (HOP-62 NSCLC): > 100 µM | TGI (HL-60(TB) leukemia): > 100 µM | TGI (MALME-3M melanoma): > 100 µM | TGI (MCF7 breast): > 100 µM | TGI (HT29 colon): > 100 µM | TGI (K-562 leukemia): > 100 µM | TGI (HCC-2998 colon): > 100 µM | TGI (HS 578T breast): > 100 µM | TGI (SNB-75 CNS): > 100 µM

COc1ccc2cc(C#Cc3ccc(-n4c(/C=C/c5cc(OC)c(OC)c(OC)c5)nc5ccccc5c4=O)c(C)c3)ccc2c1
GI50 (SW-620 colon): 17.2 µM | TGI (SW-620 colon): > 100 µM | GI50 (RPMI-8226 leukemia): 0.821 µM | TGI (RPMI-8226 leukemia): > 100 µM | GI50 (SN12C renal): > 100 µM | TGI (SN12C renal): > 100 µM | GI50 (KM12 colon): 4.3 µM | TGI (KM12 colon): > 100 µM | GI50 (UO-31 renal): > 100 µM | TGI (UO-31 renal): > 100 µM | GI50 (EKVX NSCLC): 24.1 µM | TGI (EKVX NSCLC): > 100 µM | GI50 (SR leukemia): 0.395 µM | TGI (SR leukemia): > 100 µM | GI50 (RXF 393 renal): > 100 µM | TGI (RXF 393 renal): > 100 µM | GI50 (SK-OV-3 ovarian): > 100 µM | TGI (SK-OV-3 ovarian): > 100 µM | GI50 (MOLT-4 leukemia): 4.66 µM | TGI (MOLT-4 leukemia): > 100 µM | GI50 (UACC-62 melanoma): 2.19 µM | TGI (UACC-62 melanoma): > 100 µM | GI50 (SF-268 CNS): > 100 µM | TGI (SF-268 CNS): > 100 µM | GI50 (TK-10 renal): > 100 µM | TGI (TK-10 renal): > 100 µM | GI50 (SK-MEL-28 melanoma): > 100 µM | TGI (SK-MEL-28 melanoma): > 100 µM | GI50 (OVCAR-8 ovarian): > 100 µM | TGI (OVCAR-8 ovarian): > 100 µM | GI50 (SK-MEL-5 melanoma): 1.85 µM | TGI (SK-MEL-5 melanoma): > 100 µM | GI50 (M14 melanoma): 12.7 µM | TGI (M14 melanoma): > 100 µM | GI50 (SF-539 CNS): > 100 µM | TGI (SF-539 CNS): > 100 µM | GI50 (NCI-H23 lung): 40.5 µM | TGI (NCI-H23 lung): > 100 µM | GI50 (SF-295 CNS): > 100 µM | TGI (SF-295 CNS): > 100 µM | GI50 (HCT-15 colon): 1.22 µM | TGI (HCT-15 colon): > 100 µM | GI50 (UACC-257 melanoma): 6.24 µM | TGI (UACC-257 melanoma): > 100 µM | GI50 (COLO 205 colon): 6.96 µM | TGI (COLO 205 colon): > 100 µM | GI50 (LOX IMVI melanoma): 5.94 µM | TGI (LOX IMVI melanoma): > 100 µM | GI50 (A549 NSCLC): > 100 µM | TGI (A549 NSCLC): > 100 µM | GI50 (OVCAR-4 ovarian): > 100 µM | TGI (OVCAR-4 ovarian): > 100 µM | GI50 (SK-MEL-2 melanoma): > 100 µM | TGI (SK-MEL-2 melanoma): > 100 µM | GI50 (NCI-H522 lung): > 100 µM | TGI (NCI-H522 lung): > 100 µM | GI50 (HCT-116 colon): 3.53 µM | TGI (HCT-116 colon): > 100 µM | GI50 (786-0 renal): > 100 µM | TGI (786-0 renal): > 100 µM | GI50 (OVCAR-3 ovarian): 19.3 µM | TGI (OVCAR-3 ovarian): > 100 µM | GI50 (NCI-H460 lung): 2.48 µM | TGI (NCI-H460 lung): > 100 µM | GI50 (NCI-H226 lung): > 100 µM | TGI (NCI-H226 lung): > 100 µM | GI50 (ACHN renal): > 100 µM | TGI (ACHN renal): > 100 µM | GI50 (CCRF-CEM leukemia): > 100 µM | TGI (CCRF-CEM leukemia): > 100 µM | GI50 (U251 CNS): 7.4 µM | TGI (U251 CNS): > 100 µM | GI50 (CAKI-1 renal): 4.91 µM | TGI (CAKI-1 renal): > 100 µM | GI50 (IGROV1 ovarian): > 100 µM | TGI (IGROV1 ovarian): > 100 µM | GI50 (NCI/ADR-RES ovarian): > 100 µM | TGI (NCI/ADR-RES ovarian): > 100 µM | GI50 (OVCAR-5 ovarian): > 100 µM | TGI (OVCAR-5 ovarian): > 100 µM | GI50 (SNB-19 CNS): > 100 µM | TGI (SNB-19 CNS): > 100 µM | GI50 (MDA-MB-435): > 100 µM | TGI (MDA-MB-435): > 100 µM | GI50 (HOP-62 NSCLC): > 100 µM | TGI (HOP-62 NSCLC): > 100 µM | GI50 (HL-60(TB) leukemia): 0.686 µM | TGI (HL-60(TB) leukemia): > 100 µM | GI50 (MALME-3M melanoma): 42.6 µM | TGI (MALME-3M melanoma): > 100 µM | GI50 (MCF7 breast): 63.8 µM | TGI (MCF7 breast): > 100 µM | GI50 (HT29 colon): 3.41 µM | TGI (HT29 colon): > 100 µM | GI50 (A498 renal): > 100 µM | TGI (A498 renal): > 100 µM | GI50 (K-562 leukemia): 0.882 µM | TGI (K-562 leukemia): > 100 µM | GI50 (HCC-2998 colon): > 100 µM | TGI (HCC-2998 colon): > 100 µM | GI50 (HS 578T breast): > 100 µM | TGI (HS 578T breast): > 100 µM | GI50 (SNB-75 CNS): > 100 µM | TGI (SNB-75 CNS): > 100 µM | GI50 (DU-145 prostate): > 100 µM | TGI (DU-145 prostate): > 100 µM | GI50 (MDA-MB-231 breast): 37 µM | TGI (MDA-MB-231 breast): > 100 µM
